A word on the GI50: it is the concentration at which growth is held to half of that of the control. Usually TGI stands for the concentration at which net growth stops.

Some test systems named below: UACC-62 melanoma; NCI-H226 lung; NCI-H460 lung; SK-OV-3 ovarian; HCC-2998 colon; KM12 colon; MDA-MB-231 breast; K-562 leukemia; DU-145 prostate; M14 melanoma.
Common to all, as to test: DTP human tumour cell line panel, 48 h

Values joined by “and” are separate entries in the source; they are usually repeats but may differ in a detail not shown here. Equal entries are not always repeated.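 Cells were grown in 96-well plates and exposed to each compound for 48 hours at five concentrations; endpoints were interpolated linearly between bracketing concentrations, or set to the highest concentration if not reached. GI50 is the concentration that inhibits growth by half. TGI is the concentration that stops growth completely.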

For `Cc1sc2c(c1C)C(c1ccc(Cl)cc1)=N[C@@H](CC(=O)OC(C)(C)C)c1nnc(C)n1-2`, the GI50 with UACC-62 melanoma was 0.107 µM and 0.0685 µM; with NCI-H226 lung it was 2.81 µM and 10.3 µM; with NCI-H460 lung it was 1.55 µM and 0.603 µM; in the experiment on SK-OV-3 ovarian, 0.756 µM and 0.326 µM; in the experiment on HCC-2998 colon, 0.379 µM and 0.291 µM; with KM12 colon, 2.57 µM and 0.962 µM. Besides, the GI50 is 0.714 µM and 0.304 µM in the experiment on MDA-MB-231 breast; 13.4 µM and 8.51 µM in the experiment with DU-145 prostate; 0.436 µM and 0.772 µM in the experiment on M14 melanoma. For the same compound, the TGI with UACC-62 melanoma was 20.3 µM and 15.8 µM; with NCI-H226 lung, 22 µM and 22.8 µM; in the experiment on NCI-H460 lung, 22.6 µM and 19 µM; in the experiment with SK-OV-3 ovarian, 19.4 µM and 15.6 µM; in the experiment on HCC-2998 colon it was 13.8 µM and 14 µM; with KM12 colon it was 23.1 µM and 20.1 µM. For the same compound, the TGI with MDA-MB-231 breast is 26 µM and 18.5 µM; in the experiment with K-562 leukemia, 37.5 µM and 15.7 µM; with DU-145 prostate, 33.3 µM and 22.1 µM; in the experiment with M14 melanoma it was 19.6 µM and 21.7 µM.
As to `Cc1cccc(C)c1NC(=O)Nc1ccc(S(N)(=O)=O)cc1`, the TGI in the experiment with UACC-62 melanoma, in the experiment with NCI-H226 lung, in the experiment on NCI-H460 lung, in the experiment on SK-OV-3 ovarian, in the experiment on HCC-2998 colon and in the experiment on KM12 colon was greater than 100 µM throughout. Moreover, the TGI with MDA-MB-231 breast, in the experiment on K-562 leukemia, in the experiment with DU-145 prostate and with M14 melanoma was greater than 100 µM each time.
Take `CCCC(CCC)C(=O)OCC1(CO)C/C(=C\c2ccc(F)cc2)C(=O)O1` (centres undefined): the GI50 is 8.16 µM with UACC-62 melanoma; 11.7 µM in the experiment with NCI-H226 lung; 1.94 µM in the experiment on NCI-H460 lung; 19.5 µM with SK-OV-3 ovarian; 6.73 µM in the experiment with HCC-2998 colon; 13.9 µM in the experiment with KM12 colon. For the same compound, the GI50 with MDA-MB-231 breast was 6.98 µM; with K-562 leukemia, 0.374 µM; in the experiment with DU-145 prostate it was 12.7 µM; in the experiment with M14 melanoma, 8.45 µM. Besides, the TGI with UACC-62 melanoma is 23.8 µM; in the experiment on NCI-H226 lung it was 32.3 µM; in the experiment on NCI-H460 lung, 19.6 µM; in the experiment on SK-OV-3 ovarian it was 33.9 µM; with HCC-2998 colon, 19.8 µM; with KM12 colon, 27.5 µM. The TGI with MDA-MB-231 breast amounted to 23.9 µM; in the experiment on K-562 leukemia it was 18 µM; in the experiment with DU-145 prostate, 25.7 µM; in the experiment on M14 melanoma, 24.8 µM.
In the case of `O=Cc1ccc(-c2ccc(-c3nc4ccccc4o3)cc2)o1`, the GI50 was 21.7 µM with UACC-62 melanoma; 17.9 µM in the experiment with NCI-H226 lung; 39.6 µM in the experiment with NCI-H460 lung; 41.9 µM in the experiment on SK-OV-3 ovarian; 28.6 µM in the experiment with HCC-2998 colon; 21 µM in the experiment on KM12 colon. The GI50 in the experiment with MDA-MB-231 breast is 21 µM; with K-562 leukemia it was 23.6 µM; in the experiment on DU-145 prostate, 50.1 µM; with M14 melanoma, 44.1 µM. Also, the TGI is 63.3 µM with UACC-62 melanoma; greater than 100 µM with NCI-H226 lung; greater than 100 µM with NCI-H460 lung; greater than 100 µM in the experiment on SK-OV-3 ovarian; 76.4 µM in the experiment with HCC-2998 colon; 53.4 µM in the experiment on KM12 colon. For the same compound, the TGI was 61.6 µM in the experiment with MDA-MB-231 breast, greater than 100 µM in the experiment with K-562 leukemia, greater than 100 µM in the experiment with DU-145 prostate and greater than 100 µM in the experiment with M14 melanoma.
With `CCN(CC)CCCC(C)N=C(C1=C(C(=NC(C)CCCN(CC)CC)c2cccc(OC)c2)C(=O)NC1=O)c1cccc(OC)c1` (centres undefined), the GI50 in the experiment on UACC-62 melanoma is 7.71 µM; in the experiment on NCI-H226 lung, 2.83 µM; in the experiment with NCI-H460 lung it was 0.841 µM; with SK-OV-3 ovarian it was 2.98 µM; in the experiment on HCC-2998 colon it was 1.05 µM; with KM12 colon, 1.81 µM. Moreover, the GI50 was 1.17 µM in the experiment with MDA-MB-231 breast, 1.34 µM with K-562 leukemia, 1.54 µM with DU-145 prostate and 0.89 µM in the experiment on M14 melanoma. The TGI in the experiment on UACC-62 melanoma was 15 µM; in the experiment with NCI-H226 lung, 13.6 µM; in the experiment with NCI-H460 lung, 2.13 µM; in the experiment on SK-OV-3 ovarian, 13.1 µM; with HCC-2998 colon, 2.2 µM; in the experiment with KM12 colon, 6.36 µM. The TGI with MDA-MB-231 breast came to 3.78 µM; in the experiment with K-562 leukemia, 4.2 µM; with DU-145 prostate, 5.03 µM; with M14 melanoma, 1.68 µM.
On to `Cc1cc(CC(C)CC(C)(C)C)n(O)c(=O)c1` (centres undefined) (tested in a mixture with another compound), for which the GI50 in the experiment on UACC-62 melanoma was 0.305 µM; in the experiment with NCI-H226 lung, 0.435 µM; in the experiment with NCI-H460 lung it was 0.331 µM; with SK-OV-3 ovarian, 1.75 µM; in the experiment on HCC-2998 colon, 2.6 µM; in the experiment with KM12 colon, 0.602 µM. In addition, the GI50 in the experiment with MDA-MB-231 breast was 0.45 µM; in the experiment on K-562 leukemia, 0.258 µM; in the experiment with DU-145 prostate, 0.505 µM; with M14 melanoma, 0.285 µM. The TGI is 1.08 µM with UACC-62 melanoma; 10.4 µM in the experiment with NCI-H226 lung; 10.9 µM in the experiment on NCI-H460 lung; greater than 55.3 µM with SK-OV-3 ovarian; 17.7 µM with HCC-2998 colon; 21.3 µM with KM12 colon. Besides, the TGI in the experiment with MDA-MB-231 breast is greater than 48.5 µM; with K-562 leukemia, 15.2 µM; in the experiment with DU-145 prostate it was greater than 41.3 µM; with M14 melanoma, 1.16 µM.
On to `C=C1CCC2C(C)(COC(=O)CC)C(OC(=O)CC)CCC2(C)C1C/C=C1/C(=O)OCC1OC(=O)CC` (centres undefined), for which the GI50 was 2.23 µM in the experiment on UACC-62 melanoma; 2.13 µM in the experiment on NCI-H226 lung; 1.98 µM in the experiment on NCI-H460 lung; 3.85 µM with SK-OV-3 ovarian; 4.25 µM in the experiment with HCC-2998 colon; 1.86 µM in the experiment with KM12 colon. Further, the GI50 is 2.31 µM with MDA-MB-231 breast, 1.79 µM in the experiment on K-562 leukemia, 1.82 µM with DU-145 prostate and 1.94 µM in the experiment on M14 melanoma. The TGI in the experiment with UACC-62 melanoma came out at 5.2 µM; with NCI-H226 lung, 4.1 µM; with NCI-H460 lung it was 3.59 µM; in the experiment with SK-OV-3 ovarian, 9.74 µM; in the experiment with HCC-2998 colon, 13.9 µM; in the experiment with KM12 colon it was 3.75 µM. The TGI amounted to 5.19 µM with MDA-MB-231 breast, 10.4 µM in the experiment with K-562 leukemia, 3.25 µM in the experiment on DU-145 prostate and 4.66 µM with M14 melanoma.
Turning to `CCOC(=O)CC1C(COC(=O)NC)OC(n2cnc3c(NC(=O)Nc4ccccc4)ncnc32)C1O[Si](C)(C)C(C)(C)C` (centres undefined), the GI50 with UACC-62 melanoma was 15.8 µM; with NCI-H226 lung it was 11.8 µM; in the experiment with NCI-H460 lung, 4.45 µM; in the experiment on SK-OV-3 ovarian it was 40.4 µM; with HCC-2998 colon it was 8.76 µM; in the experiment on KM12 colon it was 3.21 µM. The GI50 in the experiment with MDA-MB-231 breast is 17.5 µM; in the experiment with K-562 leukemia, 3.09 µM; in the experiment on DU-145 prostate it was 5.21 µM; in the experiment with M14 melanoma it was 6.37 µM. For the same compound, the TGI is greater than 100 µM in the experiment with UACC-62 melanoma; 36.6 µM with NCI-H226 lung; 17.2 µM in the experiment on NCI-H460 lung; greater than 100 µM with SK-OV-3 ovarian; 28.8 µM with HCC-2998 colon; 10.7 µM in the experiment with KM12 colon. The TGI was greater than 100 µM in the experiment with MDA-MB-231 breast, greater than 100 µM in the experiment on K-562 leukemia, 28.2 µM with DU-145 prostate and 95.7 µM in the experiment on M14 melanoma.
